Tested on: Giardia lamblia trophozoites (strain ATCC 30957) gene expression
Assay: Gene expression in trophozoites by RT-qPCR
Type: cell-based
Details: IC50 of each compound, 48 h
Procedure: To determine the alterations in the parasite’s metabolism and cellular processes induced by the compounds, the expression levels of various genes encoding metabolic, structural, and oxidative stress response proteins were evaluated. G. lamblia strain ATCC 30957 was grown by following previously established culture parameters.
The culture tube was incubated on ice for 15 min and then centrifuged at 2000 rpm for 6 min to concentrate the cell pellet. Cell counting was performed using the trypan blue method. A 500 µL volume of Trizol ® was added, and it was gently homogenized; then, 60 µL of chloroform was added, and it was homogenized for 10 s with a vortex and incubated on ice for 3 min. Afterward, it was centrifuged at 12,000 rpm for 10 min, the aqueous phase was transferred to a new tube, 200 µL of isopropanol was added, and it was incubated for 3 h on ice. The sample was then centrifuged for 10 min at 12,000 rpm, and the supernatant was discarded. A 600 µL volume of ethanol (70%) was added, homogenized, and centrifuged. In the end, the supernatant was removed, and the sample was centrifuged again to dry the excess alcohol. The pellet was dried. Finally, it was resuspended in 25 µL of sterile MilliQ water. The concentration and purity of the extracted RNA were determined using the NanoDrop® Spectrophotometer ND-1000 (NanoDrop Technologies, Wilmington, DE, USA). […] RNA purity and integrity were confirmed using 0.8% (w/v) agarose gels under denaturing conditions.
The synthesis of cDNA was carried out with […] of purified RNA, and 1 U of […] was added (Thermo Thermo Fisher Scientific, Waltham, MA, USA). First-strand cDNA synthesis was carried out using 1 μg of DNase-treated RNA, combined with a 10 mM dNTP mix, oligo(dT)18 primer, and RevertAid reverse transcriptase (Thermo Scientific) in a final reaction volume of 20 μL. The reaction mixture was incubated at 42 °C for 60 min, followed by heat inactivation at 70 °C for 10 min. The synthesized cDNA was stored at −20 °C until further use. The level of purity and concentration of the cDNA were determined using the NanoDrop® Spectrophotometer ND-1000 (NanoDrop Technologies, Wilmington, DE, USA).
Specific oligonucleotides were designed to determine the expression levels of the gene’s phosphofructokinase, pyruvate kinase, glucose-6-phosphate dehydrogenase::6-phosphogluconolactonase, 6-phosphogluconate dehydrogenase, and transketolase. The design was based on gene sequences available in the National Center for Biotechnology Information (NCBI) database, adhering to the following criteria: an oligonucleotide length of 18–20 bp, a melting temperature (Tm) of 61 °C, a GC content of approximately 40%, and an amplicon size between 80 and 200 bp (Table 4). The oligonucleotides were synthesized by the Sequencing and Synthesis Unit of the Institute of Biotechnology, UNAM.
Additionally, previously reported primers that were used for the gene expression analysis of G. lamblia were also obtained (Table 4). These primers target genes encoding surface structural protein, giardin, actin, pyruvate:ferredoxin oxidoreductase, pyruvate phosphate dikinase, NADH oxidase, triose phosphate isomerase, glyceraldehyde-3-phosphate dehydrogenase, and Aldolase.
Amplification was performed using a StepOne™ Real-Time PCR System and the Fast SYBR® Green Master Mix kit (Applied Biosystems, Foster City, CA, USA) under the following conditions: an initial denaturation at 95 °C for 30 s, followed by 40 cycles of 95 °C for 3 s and 60 °C for 30 s. The melt curve analysis was conducted post-amplification by gradually increasing the temperature from 60 °C to 95 °C. […] Normalization was performed using the geometric mean of cycle threshold (Ct) values, and the relative expression levels of the target genes were calculated using the 2^−ΔΔCt method. Each reaction was performed in five replicates for all analyzed genes and strains. Results are presented as mean values ± standard deviation (SD).

Structure (SMILES): CCCCC(=O)Nc1ncc([N+](=O)[O-])s1 [FLP-2, N-(5-Nitro-1,3-thiazol-2-yl)pentanamide]
- 6PGDH gene expression vs control: differential overexpression
- ACT (actin) gene expression, decrease vs control: 10 times
- G6PD::6PGL gene expression vs control: 117.4 fold change
- GAPDH gene expression vs control: 18.3 fold change
- GIA (giardin) gene expression, increase vs control: 20.1 times
- NADHox gene expression, increase vs control: lower
- PFK gene expression vs control: reduction
- PFOR gene expression vs control: 16 fold change
- PPDK gene expression vs control: 21.8 fold change
- TKT gene expression, increase vs control: 45.1 times
- VSP gene expression, increase vs control: 47.8 times

— PMC12111156, “Nitazoxanide Analogs: Synthesis, In Vitro Giardicidal Activity, and Effects on Giardia lamblia Metabolic Gene Expression” (International Journal of Molecular Sciences, 2025)
